Values quoted from earlier work, collected in patent publication EP1223952B1, “METHODS FOR TREATMENT OF SOLID TUMORS AND METASTASIS BY GENE THERAPY” (Aguilar-Cordova, Carlos, Estuardo, priority 1999, dated 2001).

Tests used:
[1] = in combination with an LHRH agonist
[2] = oral, at all doses
[3] = in vivo

CC(C)C(=O)Nc1ccc([N+](=O)[O-])c(C(F)(F)F)c1 [Eulexin, flutamide]
diarrhea [1]: 12% | gynecomastia [1]: 9% | hot flashes [1]: 61% | impotence [1]: 33% | loss of libido [1]: 36% | nausea/vomiting [1]: 11% | other [1]: 7% | other GI [1]: 6%

CC(C)[C@H](N)C(=O)OCCOCn1cnc2c(=O)[nH]c(N)nc21 [valacyclovir, Valacyclovir]
Peak plasma valacyclovir concentrations [2]: less than 0.5 mcg/ml | arthralgia (in vivo): 1-6% | depression (in vivo): 1-7% | dizziness or abdominal pain (in vivo): 2-11% | headache (in vivo): 14-35% | nausea (in vivo): 6-15 % of patients | vomiting (in vivo): 1-6% | abnormal liver function tests (laboratory abnormalities): 1-4 % of patients | anemia, leukopenia, thrombocytopenia and elevated serum creatinine (laboratory abnormalities): ≤ 1 % of patients

leuprolide acetate [Lupron Depot]
Elevation of LDH (> 2 x normal) [3]: 19.6%
